Experiment in all cases: drug sensitivity score (DSS) from 5-dose viability curve (DSS (area-based score, 0 = no response)); higher = more sensitive (stronger viability inhibition); extreme values may be limits of the assay
Test [1] deals with MDCK wild-type - doxycycline. Particulars: doxycycline: none; 72 h. The procedure, abridged:
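Parental MDCK cells, grown without doxycycline, were seeded at 2000 cells/well into 384-well plates pre-spotted with an oncology library of 528 drugs at five doses (1-10,000 nM). After 72 h at 37 °C, CellTiter-Glo luminescence was read. Viability was scaled per plate between vehicle and positive controls, and drug sensitivity scores were derived from dose-response curve fits in the Breeze pipeline.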

Test [2] deals with MDCK wild-type + doxycycline. The note with it: doxycycline: 10 ng/mL; 72 h. In outline: (§1)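 Two MDCK lines, parental and doxycycline-inducible, received doxycycline at 10 ng/mL in the medium before being plated at 2000 cells/well onto a pre-spotted 384-well oncology library of 528 drugs at five doses (1-10,000 nM). Incubation lasted 72 h at 37 °C. Viability was read by CellTiter-Glo luminescence, scaled per plate between vehicle and positive controls, and converted to drug sensitivity scores through Breeze curve fitting.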

The test system of test [3] is MDCK p60AmotL2-inducible + doxycycline (p60AmotL2 expressing). Particulars: doxycycline: 10 ng/mL; 72 h. In outline:
as §1

For the compound `C[C@H]1CN(C2COC2)CCN1c1ccc(Nc2cc(-c3ccnc(N4CCn5c(cc6c5CC(C)(C)C6)C4=O)c3CO)cn(C)c2=O)nc1` [GDC-0853], the drug sensitivity score in test [1], in test [2] and in test [3] was 0 each time.

Regarding `O[C@H](C[C@H]1c2c(F)cccc2-c2cncn21)[C@H]1CC[C@H](O)CC1` [GDC-0919], the drug sensitivity score in test [1], in test [2] and in test [3] was 0 in each case.

In the case of `CNc1nc(Nc2cn(C(C)(C)C#N)nc2C)ncc1C(F)(F)F` [GNE-0877], the drug sensitivity score in test [1], in test [2] and in test [3] was 0 each time.

On to `CCNc1nc(Nc2cc(F)c(C(=O)N3CCOCC3)cc2OC)ncc1C(F)(F)F` [GNE-7915], for which the drug sensitivity score in test [1], in test [2] and in test [3] was 0 in each case.

Turning to `CCCc1cc(C)[nH]c(=O)c1CNC(=O)c1cc(-c2ccnc(N3CCN(C)CC3)c2)cc2c1cnn2C(C)C` [GSK343], the drug sensitivity score in test [1], in test [2] and in test [3] was 0 each time.

On to `CCCOc1ccn2c(C(C)=O)cc(-c3ccccc3S(C)(=O)=O)c2c1` [GSK2801], for which the drug sensitivity score in test [1], in test [2] and in test [3] was 0 each time.

On to `CCOC(=O)CCNc1cc(N2CCc3ccccc3CC2)nc(-c2ccccn2)n1` [GSK-J4], for which the values for the drug sensitivity score in test [1], in test [2] and in test [3] were 13.7, 3.8 and 3.9, respectively.

In the case of `C[C@@H]1C=C2C(=O)O[C@@H]3CC[C@H](C1)[C@]23O` [Galiellalactone], the drug sensitivity score in test [1] is 4.3; in test [2], 2; in test [3], 2.5.

For the compound `Cc1cccc(-c2nn3c(c2-c2ccnc4ccc(C(N)=O)cc24)CCC3)n1` [Galunisertib], the drug sensitivity score in test [1], in test [2] and in test [3] was 0 throughout.

Consider `Cc1cc(Nc2cc(CN3CCOCC3)c3nc(C)c(Cc4ccc(Cl)cc4F)n3n2)n[nH]1` [Gandotinib], for which the drug sensitivity score in test [1] was determined as 6.3; in test [2], 5.5; in test [3], 8.2.

In the case of `CC(C)c1cc(-c2n[nH]c(=O)n2-c2ccc3c(ccn3C)c2)c(O)cc1O` [Ganetespib], the drug sensitivity score in test [1] came out at 16.7; in test [2], 17.4; in test [3], 19.3.

For the compound `CN(C)C1CCN(C(=O)c2ccc(NC(=O)Nc3ccc(-c4nc(N5CCOCC5)nc(N5CCOCC5)n4)cc3)cc2)CC1` [Gedatolisib], the drug sensitivity score in test [1] came to 0; in test [2], 1.9; in test [3] it was 5.2.

For the compound `COc1cc2ncnc(Nc3ccc(F)c(Cl)c3)c2cc1OCCCN1CCOCC1` [Gefitinib], the drug sensitivity score in test [1] came to 3.2; in test [2], 1.5; in test [3] it was 17.9.

In the case of `Nc1ccn([C@@H]2O[C@H](CO)[C@@H](O)C2(F)F)c(=O)n1` [Gemcitabine], the drug sensitivity score in test [1] stood at 2.2; in test [2] it was 5.5; in test [3], 7.7.

In the case of `CCc1nc(C(N)=O)c(Nc2ccc(N3CCC(N4CCN(C)CC4)CC3)c(OC)c2)nc1NC1CCOCC1` [Gilteritinib], the results for the drug sensitivity score in test [1], in test [2] and in test [3] were 0.9, 0.1 and 1, respectively.

With `CCN(CC)Cc1ccc2cc(COC(=O)Nc3ccc(C(=O)NO)cc3)ccc2c1` [Givinostat], the values for the drug sensitivity score in test [1], in test [2] and in test [3] were 4.8, 4.5 and 7.1, respectively.

`CN1CC[C@@H](NC(=O)Nc2ccc(C#N)cc2)C[C@@H]1c1nc2ccccc2[nH]1` [Glasdegib]: the drug sensitivity score in test [1], in test [2] and in test [3] was 0 in each case.

Take `COCCNCc1ccc(-c2cc3nccc(Oc4ccc(NC(=S)NC(=O)Cc5ccc(F)cc5)cc4F)c3s2)nc1` [Glesatinib]: the drug sensitivity score worked out at 0 in test [1], 0 in test [2] and 0.4 in test [3].

For `CN1CCN(C2CCN(C(=O)Nc3cc(Oc4ccc(NC(=O)C5(C(=O)Nc6ccc(F)cc6)CC5)c(F)c4)ccn3)CC2)CC1` [Golvatinib], the drug sensitivity score in test [1] amounted to 0; in test [2], 0; in test [3], 1.

Turning to `CC(C)C[C@H](NC(=O)[C@@H](COC(C)(C)C)NC(=O)[C@H](Cc1ccc(O)cc1)NC(=O)[C@H](CO)NC(=O)[C@H](Cc1c[nH]c2ccccc12)NC(=O)[C@H](Cc1cnc[nH]1)NC(=O)[C@@H]1CCC(=O)N1)C(=O)N[C@@H](CCCNC(=N)N)C(=O)N1CCC[C@H]1C(=O)NNC(N)=O` [Goserelin], the drug sensitivity score in test [1], in test [2] and in test [3] was 0 throughout.

`O=S(=O)(c1cccc2c(O)nccc12)N1CCCNCC1` [Hydroxyfasudil]: the drug sensitivity score in test [1], in test [2] and in test [3] was 0 throughout.

With `NC(=O)NO` [Hydroxyurea], the drug sensitivity score was 2 in test [1], 0 in test [2] and 0 in test [3].

`COc1cc2c(cc1-c1c(C)noc1C)ncc1[nH]c(=O)n([C@H](C)c3ccccn3)c12` [I-BET151]: the results for the drug sensitivity score in test [1], in test [2] and in test [3] were 0.6, 4.6 and 10.9, respectively.

For the compound `O=C(O)c1ccc(O)c2ncccc12` [IOX-1], the drug sensitivity score in test [1] amounted to 1.4; in test [2], 1.6; in test [3] it was 1.7.

`O=C(O)CNC(=O)c1c(O)c2ccccc2n(Cc2ccccc2)c1=O` [IOX-2]: the drug sensitivity score in test [1], in test [2] and in test [3] was 0 in each case.

`C=CC(=O)N1CCC[C@@H](n2nc(-c3ccc(Oc4ccccc4)cc3)c3c(N)ncnc32)C1` [Ibrutinib]: the figures for the drug sensitivity score in test [1], in test [2] and in test [3] were 4.5, 3.8 and 9.7, respectively.

For `C#Cc1cccc(Nc2ncnc3cc4c(cc23)OCCOCCOCCO4)c1` [Icotinib], the drug sensitivity score turned out to be 0 in test [1], 2.4 in test [2] and 7.8 in test [3].

On to `CC(=O)[C@]1(O)Cc2c(O)c3c(c(O)c2[C@@H](O[C@H]2C[C@H](N)[C@H](O)[C@H](C)O2)C1)C(=O)c1ccccc1C3=O` [Idarubicin], for which the drug sensitivity score in test [1] is 16.6; in test [2], 13.9; in test [3], 19.

Consider `COc1cc(C(=O)O)ccc1NC(=O)[C@@H]1N[C@@H](CC(C)(C)C)[C@](C#N)(c2ccc(Cl)cc2F)[C@H]1c1cccc(Cl)c1F` [Idasanutlin], for which the drug sensitivity score is 8.4 in test [1], 12.6 in test [2] and 16.2 in test [3].

Take `CC[C@H](Nc1ncnc2[nH]cnc12)c1nc2cccc(F)c2c(=O)n1-c1ccccc1` [Idelalisib]: the results for the drug sensitivity score in test [1], in test [2] and in test [3] were 0, 0 and 0.7, respectively.

On to `Cc1ccc(NC(=O)c2ccc(CN3CCN(C)CC3)cc2)cc1Nc1nccc(-c2cccnc2)n1` [Imatinib], for which the drug sensitivity score is 2.7 in test [1], 0 in test [2] and 3.4 in test [3].

On to `CC(C)Cn1cnc2c(N)nc3ccccc3c21` [Imiquimod], for which the drug sensitivity score in test [1] was 0; in test [2] it was 0; in test [3], 0.3.

For the compound `O=C(Nc1ccncc1)C(=O)c1cn(Cc2ccc(Cl)cc2)c2ccccc12` [Indibulin], the drug sensitivity score was found to be 7.2 in test [1], 0 in test [2] and 10.7 in test [3].

With `CCN1CCN(c2ccc(Nc3cc(N(C)C(=O)Nc4c(Cl)c(OC)cc(OC)c4Cl)ncn3)cc2)CC1` [Infigratinib], the drug sensitivity score in test [1], in test [2] and in test [3] was 0 throughout.

Turning to `CC(C)NC[C@@H](C(=O)N1CCN(c2ncnc3c2[C@H](C)C[C@H]3O)CC1)c1ccc(Cl)cc1` [Ipatasertib], the drug sensitivity score in test [1] was 0; in test [2], 0.1; in test [3] it was 2.2.

Regarding `CCC(C)n1ncn(-c2ccc(N3CCN(c4ccc(OCC5COC(Cn6cncn6)(c6ccc(Cl)cc6Cl)O5)cc4)CC3)cc2)c1=O` (stereo unspecified) [Itraconazole], the drug sensitivity score in test [1] amounted to 7.9; in test [2] it was 7.7; in test [3], 10.7.

For the compound `N#Cc1ccnc(N2C(=O)CC[C@H]2C(=O)N(c2cncc(F)c2)[C@H](C(=O)NC2CC(F)(F)C2)c2ccccc2Cl)c1` [Ivosidenib], the drug sensitivity score in test [1], in test [2] and in test [3] was 0 each time.

The values are drawn from the supplement of paper PMC11003180.
